Experimental data: patent US20220023271A1, “COMPOSITION FOR PREVENTING OR TREATING CELLULAR SENESCENCE-RELATED DISEASES COMPRISING ZOTAROLIMUS AS ACTIVE INGREDIENT” (RESEARCH COOPERATION FOUNDATION OF YEUNGNAM UNIVERSITY, priority 2018, published 2022)

System: human tubular epithelial cell (HK2)
Experiment: CCK-8 cell growth analysis in premature senescent HK2 cells
Assay type: cell-based
Conditions: premature senescent HK2 cells by doxorubicin; 100 nM, 4 days; vs DMSO-treated group
Description: Each cell was treated in a serum-free culture solution containing 0.5 μM doxorubicin for 4 hours. After washing the cells with a serum-free culture solution, the cells were cultured for 4 days in a culture solution containing 10% FBS, and then cellular aging was confirmed by staining with senescence-associated beta galactosidase (SAβG). After each sample was dissolved in DMSO, young cells, replicative senescent cells, and premature senescent cells treated with doxorubicin were treated with 100 nM zotarolimus, 100 nM rapamycin, 100 nM ABT263, respectively. After incubation for 4 days in a 37° C., 5% CO2 incubator, the degree of cell growth was confirmed by CCK-8 analysis, the degree of cellular aging was confirmed by senescence-related beta-galactosidase (SAβG) staining, Young cells (1×10^3 cells/well) or senescent cells (2×10^3 cells/well) were dispensed into a 96-well plate, and cultured overnight in a 37° C., 5% CO2 incubator. Zotarolimus, ABT263 and rapamycin were treated at each concentration, and then incubated for 4 days in a 37° C., 5% CO2 incubator. […] Then, the absorbance was measured at 450 nm using a microplate reader. The degree of cell growth was expressed as a relative value for the absorbance of the control group treated with only DMSO as 100%. […]

SMILES: CO[C@H]1C[C@@H]2CC[C@@H](C)[C@@](O)(O2)C(=O)C(=O)N2CCCC[C@H]2C(=O)O[C@H]([C@H](C)C[C@@H]2CC[C@H](n3cnnn3)[C@H](OC)C2)CC(=O)[C@H](C)/C=C(\C)[C@@H](O)[C@@H](OC)C(=O)[C@H](C)C[C@H](C)/C=C/C=C/C=C/1C [zotarolimus]
- cell growth (CCK-8): no difference in the growth
